{"source": "patent US11207331B2", "about": "“Agents, compositions and methods for enhancing neurological function” (University of Southern California, priority 2007, dated 2021)", "key": {"[1]": {"system": "reactive microglial cells", "test": "Microglial reaction (OX42 Western blot, Iba1 staining)", "type": "in vivo, mouse", "experimental": "(§1) Further studies were conducted using a dosing regime of once a week for six months administered subcutaneously. Three and six months old 3×Tg-AD and age-matched non-Tg mice were chosen for the experiments, since AD pathology (Aβ) starts development at 3-month and abundant accumulation at 6-months. Allopregnanolone was subcutaneously (s.c.) administrated with 10 mg/kg once per week for 6 months. For neurogenesis and neurosurvival study, BrdU, IdU and CIdU were intraperitoneal (i.p.) injected at the first 5 days, mid 5 days and 5 days before sacrifice during 6-month treatment. After 6 months of allopregnanolone treatment, mice, at 9- and 12-month old, were sacrificed.\nWestern blot analysis was conducted with rabbit polyclonal anti-CD11b/c (OX42) which recognizes reactive microglial cells."}, "[2]": {"system": "mouse hippocampal neuron cell line (HT-22)", "test": "FACS of MuLV-GFP infected HT-22 cells", "type": "cell-based", "conditions": "THP 250 nM", "experimental": "(§2) Having determined that THP increases the expression of the cell proliferating markers, a determination was sought as to whether the increase in cell proliferation markers translated into an increase in neuronal number. […] As shown in FIGS. 6A-6C, THP increases neuron number as assessed in MuLV-GFP infected mouse neurons. The effect of THP on HT-22 cells proliferation was detected on MuLV infected cells.\nFIG. 6C summarizes the FACS results. V=vehicle; THP (250 nM)."}, "β-amyloid": {"system": "β-amyloid", "test": "β-amyloid expression with antibody 6E10 (Western blot, immunostaining)", "type": "in vivo, mouse", "conditions": "for decrease of 56 kDa β-amyloid (Aβ*56) band intensity vs vehicle: cortex", "experimental": "In a pilot project to determine the impact of longterm exposure to THP, the impact of THP, 10 mg/kg s.c. thrice weekly for 3 months, on the progression of Alzheimer's disease (AD) pathology in 3-6 month old 3×TgAD mice was investigated. Mouse brain hemisphere sections were immunostained with specific antibody (6E10) against Aβ or HT7, which recognizes tau and PHF-tau between residue 159 and 163 and visualized with FITC conjugated second antibody.\nIn another experiment, THP (10 mg/kg/week, administered once a week for 6 months) was administered to 9- and 12-month male mice transgenic for Alzheimer's disease (3×Tg-AD). The 9 month old animals were started on THP at 3 months of age prior to the development of beta amyloid, whereas the 12 month old animals were begun at 6 months of age when beta amyloid had already begun to accumulate within neurons. Typically, the development of intraneuronal beta amyloid is seen in 6 and 9 month old animals and the development of plaques in 12 month old animals. Plaques are rarely seen in 9 month old animals.\nBrain sections were stained with beta amyloid antibody 6E10.\nTHP (10 mg/kg) or vehicle was transdermal treated once a week to 3-month-old 3×Tg-AD mice for 6 months. Western blot analysis was conducted using brain protein from hippocampus with beta amyloid antibody 6E10, which recognizes the abnormally processed isoforms, as well as precursor forms of beta amyloid protein.\nTHP (10 mg/kg) or vehicle was subcutaneously administered once a month, once per week for 6 months, or once every other day for 3 months. Brain sections of treated mice were stained with beta amyloid antibody 6E10 which recognizes the abnormally processed isoforms, as well as precursor forms of beta amyloid protein.\nas §1\nWestern blot analysis was conducted using brain protein from frontal-parietal-temporal cortex with beta amyloid antibody 6E10, which recognizes the abnormally processed isoforms, as well as precursor forms of beta amyloid protein. The expression of different forms of beta amyloid in 3×Tg-AD mice was characterized."}, "hippocampal neurons": {"system": "hippocampal neurons", "test": "Total number of hippocampal neurons", "type": "cell-based, rat", "conditions": "primary hippocampal neurons", "text": "as §2"}, "hippocampal neural cells": {"system": "hippocampal neural cells", "test": "3H-thymidine uptake in cultured hippocampal neural cells", "type": "cell-based, rat", "conditions": "from about 0.1 nm to about 250 nm THP", "experimental": "Biochemical analyses of 3H-thymidine uptake, as a measure of DNA synthesis, were used as the experimental vehicle to confirm the morphological observations described in examples 1 and 2. […] Thus, the range for the neurogenic effect of THP on neural cells is quite is sensitive and quite broad.\nFor these experiments, cultured hippocampal neural cells, derived from embryonic day 18 rat fetuses, were allowed to adhere to polylysine coated plastic cover-slips for 40 min in serum containing medium. Following adhesion, neurons were exposed to […] 3H-thymidine in the presence or absence of 100-500 nM THP and allowed to incubate at 37° C. for 24 hours in the absence or presence of the indicated steroids. Data are expressed as mean+SEM, *p<. 05,**p<0.01, ***p<0.001.\nThe time course of THP-induced 3H-thymidine incorporation in hippocampal neuronal cells is shown in FIG. 9 where cultured hippocampal nerve cells, derived from embryonic day 18 rat fetuses, were allowed to adhere to polylysine coated plastic cover-slips for 40 min in serum containing medium. Following adhesion, serum containing medium in the presence or absence of 10-250 nM THP plus […] 3H-thymidine and allowed to incubate at 37 for 1, 8 or 24 hours. Data are expressed as mean±SEM, *p<0.05,**p<0.01,***p<0.001."}, "[3]": {"system": "neural stem cells derived from human fetal cortex", "test": "BrdU chemiluminescence ELISA in human neural stem cells", "type": "cell-based", "conditions": "250 and 500 nM, 24 hours", "experimental": "Another experiment was performed to assess the neurogenic effects of THP administration on human neural stem cells. In this experiment, neural stem cells derived from human fetal cortex were treated with varying concentrations of THP [1-1000 nM] or with bFGF [20 ng/ml]+heparin [[…]] as a THP positive control. The proliferation marker, BrdU [10 uM] was added simultaneously with test molecules and the cells were incubated at 37° C. for 24 hours."}, "[4]": {"test": "THP concentration in plasma and cortex by GC/MS", "type": "in vivo, mouse", "experimental": "Cortices from brain hemisection of mice treated with THP or vehicle were collected at time of sacrifice for measurement of THP by GC/MS. Plasma was also collected at time of sacrifice. Three-month-old male non-Tg and 3×TgAD mice were subcutaneously injected with THP (1, 10, and 20 mg/kg BW) or vehicle (0.1% ethanol in PBS, n=4 in each group). The mice were sacrificed 24 hours later. THP concentration in plasma and brain were measured by GC/MS. […] In the 3×TgAD mouse cortex, a 10 mg/kg dose of THP results in a cortical level of 20 ng/g protein 24 hrs post injection."}}, "note": "Entries after “also recorded” stand apart in the source; their conditions may differ.", "data": [{"smiles": "CC(=O)[C@H]1CC[C@H]2[C@@H]3CC[C@H]4C[C@H](O)CC[C@]4(C)[C@H]3CC[C@]12C", "note": "[THP, 3α-hydroxy-5α-pregnan-20-one]", "values": [{"measurement": "anti-CD11b/c (OX42) band intensities", "setting": "[1]; 9-month and 12-month 3×Tg", "value": "no significant differences"}, {"measurement": "anti-Iba1 immunofluorescent staining", "setting": "[1]; hippocampal CA1", "value": "lower levels of immunoactivity in THP-treated hippocampal CA1"}, {"measurement": "increase in dividing cell number", "setting": "[2]", "value": 22, "unit": "%"}, {"measurement": "immunocytochemical detection of Abeta*56", "setting": "β-amyloid; 10 mg/kg once a week for six months", "value": "substantially decreases Abeta*56 in hippocampal neurons"}, {"measurement": "6E10 immunoreactivity", "setting": "β-amyloid; 10 mg/kg s.c. every other day for 3 months or once a week for 6 months", "value": "significantly decreases 6E10 immunoreactivity"}, {"measurement": "6E10 immunoreactivity", "setting": "β-amyloid; 10 mg/kg s.c. once a month", "value": "no effect"}, {"measurement": "6E10 / intraneuronal Aβ immunoreactivity in brain sections", "setting": "β-amyloid; 3×Tg-AD mice, once a week for 6 months", "value": "lower in THP-treated brain region CA1, Cortex and Amygdala than vehicle treated-brain, but not in the subiculum; also recorded: lower in THP-treated 9-month old 3×Tg-AD mice hippocampus, cortex, and amygdala than in vehicle-treated brain, but not in subiculum"}, {"measurement": "AD pathology markers (Aβ 6E10, tau HT7 immunoreactivity)", "setting": "β-amyloid; 3×TgAD mice, 10 mg/kg s.c. thrice weekly for 3 months", "value": "reduced the level of AD pathology markers in 3×TgAD mouse hippocampal CA1"}, {"measurement": "reduction of Aβ 6-mer 27 kDa band intensity", "setting": "β-amyloid; 9-month 3×Tg-AD mice, 10 mg/kg s.c. once a week for 6 months", "value": "35±10", "unit": "%"}, {"measurement": "decrease of 56 kDa β-amyloid (Aβ*56) band intensity vs vehicle", "setting": "β-amyloid; 9-month old 3×Tg-AD mice, 10 mg/kg s.c. once a week for 6 months", "value": "25±4", "unit": "%"}, {"measurement": "Aβ 6-mer 27 kDa band intensity vs vehicle", "setting": "β-amyloid; 12-month old 3×Tg mice", "value": "no difference"}, {"measurement": "decrease of 56 kDa β-amyloid (Aβ*56) band intensity vs vehicle", "setting": "β-amyloid; 12-month old 3×Tg-AD mice, 10 mg/kg s.c. once a week for 6 months", "value": "15±4", "unit": "%"}, {"measurement": "decrease of 28 kDa β-amyloid oligomer band intensity vs vehicle", "setting": "β-amyloid; transdermal 10 mg/kg once a week for 6 months, 9-month old 3×Tg-AD mice, hippocampus", "value": "39±13", "unit": "%"}, {"measurement": "increase in neuron number", "setting": "hippocampal neurons", "value": "approximately 30%"}, {"measurement": "increase in 3H-thymidine uptake relative to control", "setting": "hippocampal neural cells", "value": 80, "unit": "%"}, {"measurement": "BrdU chemiluminescence compared with positive control bFGF+heparin", "setting": "[3]", "value": "consistently greater than the positive control bFGF+heparin"}, {"measurement": "BrdU chemiluminescence relative to vehicle control", "setting": "[3]", "value": "significantly increased"}, {"measurement": "dose dependence of THP in plasma and cortex", "setting": "[4]; 1, 10 and 20 mg/kg BW s.c., 24 hours", "value": "linear dose dependent manner"}, {"measurement": "cortical level of THP", "setting": "[4]; 3×TgAD mouse cortex, 10 mg/kg s.c., 24 hrs post injection", "value": 20, "unit": "ng/g protein"}, {"measurement": "THP level in 3×TgAD relative to nontransgenic treated mice", "setting": "[4]; plasma and cortex, 24 hours", "value": "consistently lower level of THP in both plasma and cortex"}]}]}
